Drawing on patent US10342796B2, “Acrylanilide derivative, preparation method, and applications thereof in pharmacy” (Ancureall Pharmaceutical (Shanghai) Co., Ltd., priority 2015, dated 2019), this text covers GI50 for three compounds.

What all share (experiment): Growth inhibition GI50 in vitro (CCK8/MTT, 72 h)
In test [1] the test system is H1975 (EGFR L858R/T790M). The test is classed as cell-based, human. As to conditions: Homo sapiens, NCI-H1975.
The subject of test [2] is PC-9 (EGFR dE746-A750). Type of test: cell-based, human. Conditions: Homo sapiens.
The test system of test [3] is N87 (HER2 Amp). Type of test: cell-based, human. Conditions: Homo sapiens.
The subject of test [4] is NCI-H1781 (HER2 exon 20 G776VC mutation). The test is classed as cell-based. As to conditions: Homo sapiens, NCI-H1781; Table 16; 1000 nM to 0.03 nM serial dilution; read-out: GI50 H1781 (HER2 G776VC). Here is the method:
Human lung adenocarcinoma cell line Calu-3 (ATCC) was cultured with 1×MEM complete medium (10% FBS, 1% double-antibiotics, 1% NEAA (Gibco), 2 mM glutamine and 1 mM of sodium pyruvate). Human breast cancer cell line SK-BR-3 was cultured with McCOY'S5A complete medium (10% FBS). Human colon cancer cell line SNU1040 (HER2 V777M positive) (ATCC) and human bronchoalveolar adenocarcinoma cell line NCI-H1781 (expressing HER2 exon 20 G776VC mutation) (ATCC) were cultured with 1×RPMI1640 complete medium (10% FBS), respectively.
Adherent cells were digested with 0.25% pancreatin-EDTA (Gibco). The suspension cells were collected by centrifugation. The supernatant was discard and the cell pellet was resuspended and counted. Different cell concentrations (5˜10×10^4 cells/mL) were prepared according to the growth cycle of each cell line and then seeded on a 96-well plate (Corning), 100 μL/well. The cells were incubated over night at 37° C., 5% CO2. The compounds were added to the cells on the second day with 2 wells in parallel. The final concentration of organic solvent shall not exceed 1%. The cells were continually incubated for 72 h, and then subjected to MTT assay.
(§1) The present compounds and the reference compounds were dissolved with DMSO (Sigma), respectively. […] The storage concentration of compounds was 10 mM and kept at −20° C. They were diluted by 2 times or 10 times with serial dilution before using.
(§2) Dojindo CCK8 reagent kit was used as MTT assay. […] FC meter was used as microplate reader.
(§3) Adherent cell culture medium was discard and immediately replaced with fresh prepared medium which contains 10% CCK8 reagent (100 μL/well). For the suspension cells, CCK8 was directly added to 10% of the final concentration. The cells were continually incubated for 1˜4 h. When the color of control wells turned to dark yellow, the absorption value was measured at OD450 nm. The cell growth rate was calculated according to the following formula: cell growth rate (%)=100*(T−T0)/(C−T0), T=optical density of drug treatment cell well—optical density of blank control well; T0=optical density of cell well before drug treatment—optical density of blank control well; C=optical density of cell well of solvent control group—optical density of blank control well. The concentration value of 50% inhibition of cell growth (GI50) was calculated. The experiment was independently repeated 1˜3 times, and subject to biological statistical analysis.
Furthermore, the present compounds (99, 136, 205, 211, 212, 213, 216, 229, 230, 231, 232, 233 and 236) were selected to carry out growth inhibition test for HER2/ERBB2 gene amplified or high expressed or mutant tumor cells. Afatinib and AZD9291 were used for references as second- and third-generation inhibitors of EGFR.
Each compound started at 1000 nM as an initial concentration and was diluted by 2 times with serial dilution to 0.03 nM. The GI50 value of each compound was calculated according to Test Example 1.3.

Test [5] concerns H292 (EGFR WT). Type of test: cell-based. Conditions: Homo sapiens, NCI-H292; Table 15; 1000 nM to 0.03 nM serial dilution; read-out: GI50 H292 (EGFR WT).
From the text: EGFR wild type cell lines: human epidermal cancer cell line A431 (EGFR WT, amplification and high expression, from Shanghai Cell Bank of Chinese Academy of Sciences and ATCC), NSCLC cell lines NCI-H460 (EGFR WT, Kras G61H and PI3KCA E545K mutants, ATCC) and NCI-H1299 (EGFR WT, ATCC), melanoma cell line A375 (EGFR WT and BRAF V600E mutant, from Shanghai Cell Bank of Chinese Academy of Sciences, ATCC), human lung cancer cell line NCI-H292 (EGFR WT, from human lung mucoepidermoid carcinoma/lymphatic metastasis, purchased from Shanghai Cell Bank of Chinese Academy of Sciences) were cultured with 1×RPMI1640 complete medium which was supplement with 10% FBS. NSCLC cell line A549 (EGFR WT and Kras G12S mutant, from Shanghai Cell Bank of Chinese Academy of Sciences) was cultured with 1×Ham'S F12K complete medium which was supplement with 10% FBS, 1% double-antibiotics and 2 mM glutamine.
The suspension cells were collected by centrifugation. The supernatant was discard and the cell pellet was resuspended and counted. Different cell concentrations (5˜10×10^4 cells/mL) were prepared according to the growth cycle of each cell line and then seeded on a 96-well plate (Corning), 100 μL/well. The cells were incubated over night at 37° C., 5% CO2. The compounds were added to the cells on the second day with 2 wells in parallel. The final concentration of organic solvent shall not exceed 1%. The cells were continually incubated for 72 h, and then subjected to MTT assay.
as §1, §2
as §3, with “The concentration value of 50% inhibition of cell growth (GI50) was calculated.” left out

Test [6] concerns A549 (EGFR WT). Type of test: cell-based, human. Conditions: Homo sapiens, A549.
Setting [7] is: Table 13, 72 h, read-out: Range of GI50 H1975 (EGFR L858R/T790M).
Setting [8] is: Table 15, 1000 nM to 0.03 nM serial dilution, read-out: GI50 H1975 (EGFR L858R/T790M).
Where [9] appears, read: Table 13, 72 h, read-out: Range of GI50 PC-9 (EGFR dE746-A750).
[10] abbreviates: Table 15, 1000 nM to 0.03 nM serial dilution, read-out: GI50 PC-9 (EGFR dE746-A750).
Setting [11] is: Table 13, 72 h, read-out: Range of GI50 N87 (HER2 Amp).
Setting [12] is: Table 16, 1000 nM to 0.03 nM serial dilution, read-out: GI50 N87 (HER2 amp).
Setting [13] is: Table 13, 72 h, read-out: Range of GI50 A549 (EGFR WT).
Setting [14] is: Table 15, 1000 nM to 0.03 nM serial dilution, read-out: GI50 A549 (EGFR WT).

Read-outs that look alike come from different tables or passages of the source.

In the case of `C=CC(=O)Nc1cc(Nc2nccc(-n3ccc4c(OC)cc(Br)cc43)n2)c(OC)cc1N(C)CCN(C)C` [Compound 211, N-(5-(4-(4-methoxyl-6-bromo-1H-indol-1-yl)-pyrimidin-2-ylamino)-2-(2-(dimethylamino-ethyl)-methyl-amino)-4-methoxyl-phenyl)-acrylamide], the GI50 in test [1] (setting [7]) was 10 to 100 nM; in test [1] (setting [8]), 19.6 nM; in test [2] (setting [9]), less than 10 nM; in test [2] (setting [10]), 7.89 nM; in test [3] (setting [11]), less than 10 nM; in test [3] (setting [12]), 6.76 nM. Further, the GI50 in test [4] was 31.5 nM; in test [5], more than 1000 nM; in test [6] (setting [13]), more than 1000 nM; in test [6] (setting [14]) it was more than 1000 nM.

`C=CC(=O)Nc1cc(Nc2nccc(-n3ccc4c(OC)cc(F)cc43)n2)c(OC)cc1N(C)CCN(C)C` [Compound 212, N-(5-(4-(4-methoxyl-6-fluoro-1H-indol-1-yl)-pyrimidin-2-ylamino)-2-(2-(dimethylamino-ethyl)-methyl-amino)-4-methoxyl-phenyl)-acrylamide]: the GI50 in test [1] (setting [7]) was less than 10 nM; in test [1] (setting [8]) it was 8.56 nM; in test [2] (setting [9]) it was less than 10 nM; in test [2] (setting [10]), 6.82 nM; in test [3] (setting [11]) it was less than 10 nM; in test [3] (setting [12]), 2.67 nM. Further, the GI50 is 15.6 nM in test [4], more than 1000 nM in test [5], more than 1000 nM in test [6] (setting [13]) and more than 1000 nM in test [6] (setting [14]).

For `C=CC(=O)Nc1cc(Nc2nccc(-n3ccc4c(OC)cc(Cl)cc43)n2)c(OC)cc1N(C)CCN(C)C` [Compound 213], the GI50 is less than 10 nM in test [1] (setting [7]); 9.8 nM in test [1] (setting [8]); less than 10 nM in test [2] (setting [9]); 7.83 nM in test [2] (setting [10]); less than 10 nM in test [3] (setting [11]); 1.95 nM in test [3] (setting [12]). Moreover, the GI50 in test [4] was 15.6 nM; in test [5], more than 1000 nM; in test [6] (setting [13]), more than 1000 nM; in test [6] (setting [14]), more than 1000 nM.
